From patent US4965283A, “Amino acid esters, process for the preparation thereof and use thereof” (Dr. Willmar Schwabe GmbH & Co., priority 1987, dated 1990) come the findings set out here.

The subject of one series is mouse. The series is described as follows: observation for neurotoxicity symptoms (motility, muscle tonus, respiratory frequency, body temperature, general behaviour). In kind it is in vivo. As to the method: During the experiments described above, the animals were observed during the whole of the experimental period (up to 4 hours) for signs of substance-caused changes of behaviour and neurotoxicity (motility, muscle tonus, respiratory frequency, body temperature and general behaviour).

For series [1], the system named is maximum electroshock spasm (MES), extensor spasm in mice. The series is described as follows: MES test (maximum electroshock; inhibition of extensor spasm). In kind it is in vivo, male mice (NMRI). The following applies: Mus musculus; for ED50: read-out: ED 50 values. An excerpt: For the determination of the anticonvulsive/anti-epileptic activity of the substances according to the present invention the method described by E. A. Swinyard et al., J. Pharmacol. exp. Therapeut. 106, 319-330 (1952) and by L. A. Woodbury et al., Arch. int. Pharmacodyn., 92, 97-107 (1952) was used. To male mice (NMRI) with a body weight of 20-25 g via corneal electrodes, an alternating current of 50 Hz and 50 mA is applied for 0.2 sec. (HSE-shock stimulation apparatus; type 207). The maximum electroshock spasm (MES) consists of a tonic extension of the rear extremities, the clonic twitch and loss of consciousness. The activity criterion is taken as being the inhibition of the extensor spasm by the substances according to the present invention. Before the experiments the mice had free access to feed and water. The test substances were administered orally as suspensions in 0.2% agar by stomach tubes; the control animals received adequate volumes of agar. 1 hour and 3 hours after administration the test for protective action against MES was carried out.
As percentage action the percentage proportion of those animals which in the MES test were protected 100% against the extensor spasm is given. 10 animals were used per test.
The ED 50 values were determined according to Lichtfield and Wilcoxon J. Pharmacol. exp. Therapeut. 96, 99 (1949) in each case with 4 to 5 animal groups each of 8-10 animals per dosage stage.

For series [2] the test system is unchanged. The series is described as above. The note with it: Mus musculus, ip, 1 h, read-out: protective action [%] after 1 hr. The class given is in vivo, male mice (NMRI).
Where [3] appears, read: po, 1 h, oral, 1 hr after administration, n = 10, read-out: protective action [%] after 1 hr.
The mark [4] stands for this setting: po, 3 h, oral, 3 hrs after administration, n = 10, read-out: protective action [%] after 3 hrs.

Read-outs that look alike come from different tables or passages of the source.

As for `NC(=O)N1c2ccccc2C=Cc2ccccc21` [carbamazepine, reference compound], the “Neurotoxic limiting dose in the mouse, dose p.o.” value in the series with mouse (in vivo, po) worked out at 100 mg/kg. Besides, the responders at 50 mg/kg in series [1] (setting [3]) and in series [1] (setting [4]) was 100% each time.

For `CCC1(c2ccccc2)C(=O)NC(=O)NC1=O` [phenobarbital, reference compound], the “Neurotoxic limiting dose in the mouse, dose p.o.” value with mouse (p.o.) came to 60 mg/kg. In addition, in series [1] (po, 1 h), the ED50 amounted to 19.2 mg/kg. Also, the responders at 100 mg/kg in series [1] (po, 1 h, read-out: protective action [%] after 1 hr) came to 100%; in series [1] (po, 3 h, read-out: protective action [%] after 3 hrs) it was 100%.

In the case of `O=C1NC(=O)C(c2ccccc2)(c2ccccc2)N1` [phenytoin, diphenylhydantoin, reference compound], the “Neurotoxic limiting dose in the mouse, dose p.o.” value in the series on mouse (in vivo, po) amounted to 100 mg/kg. Also, the responders at 50 mg/kg in series [1] (setting [3]) and in series [1] (setting [4]) was 100% each time. In addition, in series [1] (po, 1 h, MES test, oral, 1 hour after administration), the ED50 is 9.1 mg/kg.

Regarding `CCCC(C)C1(CC)C(=O)NC(=O)NC1=O` (centres unmarked) [pentobarbital], the “Neurotoxic limiting dose in the mouse, dose p.o.” value in the series with mouse (p.o.) is 60 mg/kg.

For the compound `CCC1(C)CC(=O)NC1=O` (centres unmarked) [ethosuximide, reference compound], in the series on mouse (in vivo, po), the “Neurotoxic limiting dose in the mouse, dose p.o.” value is on record as 500 mg/kg. The responders at 100 mg/kg came out at 0% in series [1] (po, 1 h, 100 mg/kg, oral, 1 hr after administration, n = 10, read-out: protective action [%] after 1 hr) and 0% in series [1] (po, 3 h, 100 mg/kg, oral, 3 hrs after administration, n = 10, read-out: protective action [%] after 3 hrs). The ED50 in series [1] (po, 4 h, MES test, oral, ** 4 hours after administration) was above 250 mg/kg.

Take `CCCC(CCC)C(=O)O` [valproic acid, reference compound]: the “Neurotoxic limiting dose in the mouse, dose p.o.” value in the series with mouse (p.o.) amounted to 350 mg/kg. In addition, the ED50 in series [1] (ip, 1 h) came out at 205 mg/kg. Moreover, the responders at 100 mg/kg in series [1] (ip, 3 h, read-out: protective action [%] after 3 hrs) is 0%; in series [2], 0%.
